Measured values taken from paper PMC6234689 (International Journal of Retina and Vitreous, 2018).

Key:
[1] = system: rabbit retina; conditions: intravitreal 40 µg/50 µL, 24, 48, 72 and 168 h
Protocol: (§1) Baseline electroretinogram (ERG) was obtained for rabbits prior the intravitreal injection as the method described below. […] The effective dose was calculated from the previous study performed in our lab.

[2] = system: rabbit retina; assay: Fundus imaging after intravitreal injection; format: in vivo, New Zealand rabbits; conditions: intravitreal 40 µg/0.05 ml, observational period of 7 days
Protocol: as §1
Following Electroretinogram (ERG) study, rabbit retina was focused and fundus images of both eyes were recorded using streampix software using MICRON III rodent imaging system (Phoenix Lab, USA) after subjecting them for ERG.

[3] = Stability of intravitreal formulation after thermal sterilization by autoclaving; format: physicochemical; conditions: 0.08% w/v in sterile saline, concentration before and after autoclaving
Text: After checking it for pH, it was filled, sealed in glass ampoules and subjected for autoclaving.

[4] = rabbit, intravitreal 40 µg/50 µL
[5] = system: progression of retinopathy; parameters: method as in PMID 9726242; conditions: EUCLID Study, diabetic patients; cited from earlier work
[6] = in vivo; conditions: New Zealand, rabbit, 40 µg

For `NCCCC[C@H](N[C@@H](CCc1ccccc1)C(=O)O)C(=O)N1CCC[C@H]1C(=O)O` [lisinopril], the “'a' and 'b' wave amplitude of ERG compared to baseline” value [1] was “No changes were observed”, the “morphological changes in the retina on fundus images” value [2] was “no significant morphological changes” and the “stability of formulation after thermal sterilization by autoclaving” value [3] was “stable”. The “lisinopril concentration in retina-choroid (highest)” value ([4]; at 1 h) was 7 µg, the “lisinopril concentration in the vitreous humour (highest)” value ([4]; at 1 h) was 14.52 µg and the “maximum concentration in sclera” value ([4]; at 2 h) was 6.6 µg. The “reduction of the risk of progression of retinopathy” value [5] was “approximately 50%”, the half-life ([6]; in vivo) was 12.6 h and the half-life ([6]; vitreous humour) was 41.5 h.
